# From PubChem BioAssay (NCI)
#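 Grown in 96-well plates, cells were treated for 48 hours with each compound at five concentrations. Insufficient inhibition: endpoint recorded as highest concentration tested. TGI is the concentration that stops growth completely.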
# Tests used:
# Test in all cases: DTP human tumour cell line panel, 48 h
# [1] = test system: OVCAR-3 ovarian
# [2] = test system: DU-145 prostate
# [3] = test system: SK-MEL-5 melanoma
# [4] = test system: EKVX NSCLC
# [5] = test system: SK-MEL-28 melanoma
# [6] = test system: SF-295 CNS
# [7] = test system: HCT-15 colon
# [8] = test system: SW-620 colon
# [9] = test system: HL-60(TB) leukemia
# [10] = test system: LOX IMVI melanoma
# [11] = test system: SN12C renal
# [12] = test system: NCI/ADR-RES ovarian
# [13] = test system: MOLT-4 leukemia
# [14] = test system: SF-539 CNS
# [15] = test system: MDA-MB-231 breast
# [16] = test system: RPMI-8226 leukemia
# [17] = test system: RXF 393 renal
# [18] = test system: SNB-19 CNS
# [19] = test system: COLO 205 colon
# [20] = test system: SNB-75 CNS
# [21] = test system: MALME-3M melanoma
# [22] = test system: HCC-2998 colon
# [23] = test system: BT-549 breast
# [24] = test system: OVCAR-4 ovarian
# [25] = test system: HS 578T breast
# [26] = test system: SF-268 CNS
# [27] = test system: 786-0 renal
# [28] = test system: IGROV1 ovarian
# [29] = test system: MDA-N
# [30] = test system: TK-10 renal
# [31] = test system: CCRF-CEM leukemia
# [32] = test system: K-562 leukemia
# [33] = test system: NCI-H23 lung
# [34] = test system: A549 NSCLC
# [35] = test system: SR leukemia
# [36] = test system: ACHN renal
# [37] = test system: SK-MEL-2 melanoma
# [38] = test system: HCT-116 colon
# [39] = test system: UACC-62 melanoma
# [40] = test system: HT29 colon
# [41] = test system: SK-OV-3 ovarian
# [42] = test system: HOP-62 NSCLC
# [43] = test system: M14 melanoma
# [44] = test system: OVCAR-8 ovarian
# [45] = test system: A498 renal
# [46] = test system: T-47D breast
# [47] = test system: OVCAR-5 ovarian
# [48] = test system: UO-31 renal
# [49] = test system: PC-3 prostate
# [50] = test system: NCI-H460 lung
# [51] = test system: U251 CNS
# [52] = test system: NCI-H226 lung
# [53] = test system: UACC-257 melanoma
# [54] = test system: KM12 colon
# [55] = test system: CAKI-1 renal
# [56] = test system: MDA-MB-435
# [57] = test system: HOP-92 NSCLC
# [58] = test system: NCI-H522 lung
smiles,measurement,setting,value
O=c1cc(NNc2ccc(F)cc2)[nH]c(=O)[nH]1,TGI,[1],32.7 µM
same,TGI,[2],> 100 µM
same,TGI,[3],67.1 µM
same,TGI,[4],32.2 µM
same,TGI,[5],33.3 µM
same,TGI,[6],> 100 µM
same,TGI,[7],31.7 µM
same,TGI,[8],33.1 µM
same,TGI,[9],> 100 µM
same,TGI,[10],> 100 µM
same,TGI,[11],37.7 µM
same,TGI,[12],88.7 µM
same,TGI,[13],59.3 µM
same,TGI,[14],44.5 µM
same,TGI,[15],33.4 µM
same,TGI,[16],> 100 µM
same,TGI,[17],34.3 µM
same,TGI,[18],37.1 µM
same,TGI,[19],30.9 µM
same,TGI,[20],31.1 µM
same,TGI,[21],43.8 µM
same,TGI,[22],51.3 µM
same,TGI,[23],26.7 µM
same,TGI,[24],21.4 µM
same,TGI,[25],90.8 µM
same,TGI,[26],53.8 µM
same,TGI,[27],25.5 µM
same,TGI,[28],30.2 µM
same,TGI,[29],30.8 µM
same,TGI,[30],36.8 µM
same,TGI,[31],74.7 µM
same,TGI,[32],81.2 µM
same,TGI,[33],82.7 µM
same,TGI,[34],34.7 µM
same,TGI,[35],> 100 µM
same,TGI,[36],31.7 µM
same,TGI,[37],45.6 µM
same,TGI,[38],34.1 µM
same,TGI,[39],33.5 µM
same,TGI,[40],33.9 µM
same,TGI,[41],> 100 µM
same,TGI,[42],32.7 µM
same,TGI,[43],21 µM
same,TGI,[44],53.3 µM
same,TGI,[45],> 100 µM
same,TGI,[46],71 µM
same,TGI,[47],33.3 µM
same,TGI,[48],31.8 µM
same,TGI,[49],32.5 µM
same,TGI,[50],38.7 µM
same,TGI,[51],40.8 µM
same,TGI,[52],57.4 µM
same,TGI,[53],> 100 µM
same,TGI,[54],24 µM
Cc1ccc(N=Nc2c(O)c(C(=O)O)cc3ccccc23)c(S(=O)(=O)O)c1,TGI,[55],> 100 µM
same,TGI,[1],> 100 µM
same,TGI,[2],> 100 µM
same,TGI,[3],> 100 µM
same,TGI,[4],> 100 µM
same,TGI,[5],> 100 µM
same,TGI,[6],> 100 µM
same,TGI,[7],> 100 µM
same,TGI,[8],> 100 µM
same,TGI,[56],> 100 µM
same,TGI,[10],> 100 µM
same,TGI,[11],> 100 µM
same,TGI,[12],> 100 µM
same,TGI,[13],> 100 µM
same,TGI,[15],> 100 µM
same,TGI,[16],> 100 µM
same,TGI,[17],> 100 µM
same,TGI,[18],> 100 µM
same,TGI,[19],> 100 µM
same,TGI,[20],> 100 µM
same,TGI,[21],> 100 µM
same,TGI,[23],> 100 µM
same,TGI,[24],> 100 µM
same,TGI,[25],> 100 µM
same,TGI,[26],> 100 µM
same,TGI,[27],> 100 µM
same,TGI,[28],> 100 µM
same,TGI,[57],> 100 µM
same,TGI,[29],> 100 µM
same,TGI,[30],> 100 µM
same,TGI,[31],> 100 µM
same,TGI,[32],> 100 µM
same,TGI,[33],> 100 µM
same,TGI,[58],> 100 µM
same,TGI,[34],> 100 µM
same,TGI,[35],> 100 µM
same,TGI,[36],> 100 µM
same,TGI,[37],> 100 µM
same,TGI,[38],> 100 µM
same,TGI,[39],> 100 µM
same,TGI,[40],> 100 µM
same,TGI,[41],> 100 µM
same,TGI,[42],> 100 µM
same,TGI,[43],> 100 µM
same,TGI,[44],> 100 µM
same,TGI,[45],> 100 µM
same,TGI,[46],> 100 µM
same,TGI,[47],> 100 µM
same,TGI,[48],> 100 µM
same,TGI,[49],> 100 µM
same,TGI,[51],> 100 µM
same,TGI,[52],> 100 µM
same,TGI,[53],> 100 µM
same,TGI,[54],> 100 µM
